Results from PMC5095062, “The novel choline kinase inhibitor ICL-CCIC-0019 reprograms cellular metabolism and inhibits cancer cell growth” (Oncotarget, 2016).

Legend:
Assay in all cases: Kinase selectivity screen
Format in all cases: biochemical
ERK2 = ERK2 (Homo sapiens, UniProt P28482); settings: ERK2, 10 μM
Method: (§1) The substantially less demanding synthesis of ICL-CCIC-0019 compared with MN58B bears additional advantages. […] This consequently diminished intracellular PCho concentration, and importantly, the incorporation of [^3H]-choline into lipids (Figure 1D). […] To assess kinase specificity, ICL-CCIC-0019 was tested against a panel of 131 human kinases (Figure 1E and Supplementary Table S1). […] Inhibition greater than 20% was attained for insulin-like growth factor 1 (IGF-1R, 35 ± 7% inhibition), mitogen-activated protein kinase-activated protein kinase 3 (MAPKAP-K3, 33 ± 6%), extracellular signal regulated kinase 8 (ERK8, 31 ± 4%), ribosomal S6 kinase 1 (RSK1, 22 ± 6%), and v-erb-a erythroblastic leukemia viral oncogene homolog 4 (HER4, 21 ± 7%).

SIK2 = SIK2 (Homo sapiens, UniProt Q9H0K1); settings: SIK2, 10 μM
Method: as §1

PKD1 = PKD1 (Homo sapiens, UniProt Q15139); settings: PKD1, 10 μM
Method: as §1

TTBK1 = TTBK1 (Homo sapiens, UniProt Q5TCY1); settings: TTBK1, 10 μM
Method: as §1

RIPK2 = RIPK2 (Homo sapiens, UniProt O43353); settings: RIPK2, 10 μM
Method: as §1

MAPKAP-K3 = MAPKAP-K3 (Homo sapiens, UniProt Q16644); settings: MAPKAP-K3, 10 μM
Sequence of MAPKAP-K3 (Q16644 whole entry): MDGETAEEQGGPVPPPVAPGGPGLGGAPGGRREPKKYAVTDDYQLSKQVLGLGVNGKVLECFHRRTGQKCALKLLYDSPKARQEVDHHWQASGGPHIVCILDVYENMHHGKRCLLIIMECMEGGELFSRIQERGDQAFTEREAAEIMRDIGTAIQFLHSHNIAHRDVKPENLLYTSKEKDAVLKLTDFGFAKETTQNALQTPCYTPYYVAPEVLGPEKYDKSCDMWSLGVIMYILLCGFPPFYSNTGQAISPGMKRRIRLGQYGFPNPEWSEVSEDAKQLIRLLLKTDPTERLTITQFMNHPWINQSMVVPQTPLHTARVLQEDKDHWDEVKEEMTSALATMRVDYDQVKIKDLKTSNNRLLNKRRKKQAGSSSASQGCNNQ
Method: as §1

MSK1 = MSK1 (Homo sapiens, UniProt O75582); settings: MSK1, 10 μM
Method: as §1

PRK2 = PRK2 (Homo sapiens, UniProt Q16513); settings: PRK2, 10 μM
Method: as §1

TrkA = TrkA (Homo sapiens, UniProt P04629)
Method: as §1

STK33 = STK33 (Homo sapiens, UniProt Q9BYT3); settings: STK33, 10 μM
Method: as §1

EPH-B3 = EPH-B3 (Homo sapiens, UniProt P54753); settings: EPH-B3, 10 μM
Sequence of EPH-B3 (P54753 34-998): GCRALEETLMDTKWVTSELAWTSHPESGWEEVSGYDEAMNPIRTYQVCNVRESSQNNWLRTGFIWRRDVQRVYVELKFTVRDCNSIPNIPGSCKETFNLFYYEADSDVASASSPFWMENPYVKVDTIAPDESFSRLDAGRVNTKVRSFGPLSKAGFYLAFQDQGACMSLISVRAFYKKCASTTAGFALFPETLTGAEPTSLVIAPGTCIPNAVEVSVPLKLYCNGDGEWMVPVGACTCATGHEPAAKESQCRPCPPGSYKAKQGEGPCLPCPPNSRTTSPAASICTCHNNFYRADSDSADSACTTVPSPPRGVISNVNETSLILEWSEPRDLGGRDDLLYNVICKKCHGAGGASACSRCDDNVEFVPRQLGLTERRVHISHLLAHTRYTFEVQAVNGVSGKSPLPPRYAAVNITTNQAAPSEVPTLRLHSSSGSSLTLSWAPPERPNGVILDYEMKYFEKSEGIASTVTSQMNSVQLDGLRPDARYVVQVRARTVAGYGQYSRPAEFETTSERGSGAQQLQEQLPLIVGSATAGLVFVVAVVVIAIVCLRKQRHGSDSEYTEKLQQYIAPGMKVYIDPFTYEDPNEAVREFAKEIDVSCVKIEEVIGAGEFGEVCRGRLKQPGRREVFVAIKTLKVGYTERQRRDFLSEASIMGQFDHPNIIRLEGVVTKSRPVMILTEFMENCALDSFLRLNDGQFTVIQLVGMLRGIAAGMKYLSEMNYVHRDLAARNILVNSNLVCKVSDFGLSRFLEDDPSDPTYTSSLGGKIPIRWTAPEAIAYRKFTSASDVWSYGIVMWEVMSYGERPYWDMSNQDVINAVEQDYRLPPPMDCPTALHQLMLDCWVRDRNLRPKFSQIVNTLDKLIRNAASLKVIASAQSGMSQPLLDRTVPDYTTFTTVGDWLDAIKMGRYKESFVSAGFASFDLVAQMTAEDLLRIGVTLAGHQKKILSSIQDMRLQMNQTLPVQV
Method: as §1

CK1δ = CK1δ (Homo sapiens, UniProt P48730)
Sequence of CK1δ (P48730 whole entry): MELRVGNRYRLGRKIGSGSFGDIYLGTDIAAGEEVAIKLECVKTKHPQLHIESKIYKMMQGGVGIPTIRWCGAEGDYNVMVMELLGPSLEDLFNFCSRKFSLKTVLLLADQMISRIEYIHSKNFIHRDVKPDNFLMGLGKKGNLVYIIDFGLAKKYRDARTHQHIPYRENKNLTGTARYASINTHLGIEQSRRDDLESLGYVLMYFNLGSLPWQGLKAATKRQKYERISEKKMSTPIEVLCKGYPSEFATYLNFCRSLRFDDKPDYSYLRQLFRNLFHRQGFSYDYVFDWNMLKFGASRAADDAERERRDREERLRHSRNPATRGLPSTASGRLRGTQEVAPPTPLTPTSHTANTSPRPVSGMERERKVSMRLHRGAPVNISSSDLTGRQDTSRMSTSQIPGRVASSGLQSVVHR
Method: as §1

DAPK1 = DAPK1 (Homo sapiens, UniProt P53355); settings: DAPK1, 10 μM
Method: as §1

MARK2 = MARK2 (Homo sapiens, UniProt Q7KZI7); settings: MARK2, 10 μM
Method: as §1

HER4 = HER4 (Homo sapiens, UniProt Q15303); settings: HER4, 10 μM
Sequence of HER4 (Q15303 26-1308): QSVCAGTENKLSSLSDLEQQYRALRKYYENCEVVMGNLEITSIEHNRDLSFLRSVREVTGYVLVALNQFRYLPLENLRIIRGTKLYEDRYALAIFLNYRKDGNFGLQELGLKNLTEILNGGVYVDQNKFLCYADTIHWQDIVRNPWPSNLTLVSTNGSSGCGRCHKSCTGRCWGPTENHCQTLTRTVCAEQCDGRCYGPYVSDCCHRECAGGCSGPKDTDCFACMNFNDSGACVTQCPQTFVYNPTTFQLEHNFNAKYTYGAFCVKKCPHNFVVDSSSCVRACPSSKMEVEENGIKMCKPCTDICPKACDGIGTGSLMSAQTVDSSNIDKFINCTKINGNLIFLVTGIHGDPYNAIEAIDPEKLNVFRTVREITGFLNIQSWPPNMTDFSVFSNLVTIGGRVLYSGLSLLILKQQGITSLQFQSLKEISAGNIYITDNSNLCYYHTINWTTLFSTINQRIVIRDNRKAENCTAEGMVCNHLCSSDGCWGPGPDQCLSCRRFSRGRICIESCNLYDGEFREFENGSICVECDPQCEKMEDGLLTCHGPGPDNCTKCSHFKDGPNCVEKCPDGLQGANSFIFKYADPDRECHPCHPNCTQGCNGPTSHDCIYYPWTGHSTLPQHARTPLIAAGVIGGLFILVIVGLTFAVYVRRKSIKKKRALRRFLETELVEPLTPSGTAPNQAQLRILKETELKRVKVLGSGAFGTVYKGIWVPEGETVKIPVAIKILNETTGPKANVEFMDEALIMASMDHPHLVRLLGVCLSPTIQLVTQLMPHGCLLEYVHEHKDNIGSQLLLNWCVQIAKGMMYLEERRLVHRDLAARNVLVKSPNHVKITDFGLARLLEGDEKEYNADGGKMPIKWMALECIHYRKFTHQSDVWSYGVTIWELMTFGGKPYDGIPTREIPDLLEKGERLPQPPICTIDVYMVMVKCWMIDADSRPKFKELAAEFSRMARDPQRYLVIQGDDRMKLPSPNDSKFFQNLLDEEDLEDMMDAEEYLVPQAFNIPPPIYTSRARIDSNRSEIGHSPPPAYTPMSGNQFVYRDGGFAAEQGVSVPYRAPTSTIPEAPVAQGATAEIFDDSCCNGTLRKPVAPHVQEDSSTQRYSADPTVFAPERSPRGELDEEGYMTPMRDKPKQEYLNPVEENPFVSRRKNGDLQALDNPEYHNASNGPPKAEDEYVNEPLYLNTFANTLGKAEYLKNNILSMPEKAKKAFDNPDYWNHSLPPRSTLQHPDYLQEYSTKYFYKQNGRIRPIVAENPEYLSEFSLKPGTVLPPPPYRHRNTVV
Method: as §1

ERK8 = ERK8 (Homo sapiens, UniProt Q8TD08); settings: ERK8, 10 μM
Sequence of ERK8 (Q8TD08 whole entry): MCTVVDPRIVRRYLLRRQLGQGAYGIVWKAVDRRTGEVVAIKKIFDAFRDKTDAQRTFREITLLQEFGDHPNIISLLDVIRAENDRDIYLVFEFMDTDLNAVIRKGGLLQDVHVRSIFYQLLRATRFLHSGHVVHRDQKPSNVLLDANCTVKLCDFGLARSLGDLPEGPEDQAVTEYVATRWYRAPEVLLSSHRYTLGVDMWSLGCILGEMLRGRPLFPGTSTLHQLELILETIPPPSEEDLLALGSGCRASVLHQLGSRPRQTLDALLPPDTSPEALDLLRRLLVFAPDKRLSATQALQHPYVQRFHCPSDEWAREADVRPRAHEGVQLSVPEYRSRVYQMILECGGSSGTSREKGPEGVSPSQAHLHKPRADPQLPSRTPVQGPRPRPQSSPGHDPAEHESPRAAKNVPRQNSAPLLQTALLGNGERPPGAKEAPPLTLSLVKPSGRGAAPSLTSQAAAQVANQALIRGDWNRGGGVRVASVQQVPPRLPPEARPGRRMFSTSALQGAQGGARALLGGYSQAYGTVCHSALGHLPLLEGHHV
Method: as §1

IR = IR (Homo sapiens, UniProt P06213)
Method: as §1

Aurora A = Aurora A (Homo sapiens, UniProt O14965)
Method: as §1

MNK1 = MNK1 (Homo sapiens, UniProt Q9BUB5); settings: MNK1, 10 μM
Method: as §1

PKCa = PKCa (Homo sapiens, UniProt P17252)
Method: as §1

RSK1 = RSK1 (Homo sapiens, UniProt Q15418); settings: RSK1, 10 μM
Sequence of RSK1 (Q15418 whole entry): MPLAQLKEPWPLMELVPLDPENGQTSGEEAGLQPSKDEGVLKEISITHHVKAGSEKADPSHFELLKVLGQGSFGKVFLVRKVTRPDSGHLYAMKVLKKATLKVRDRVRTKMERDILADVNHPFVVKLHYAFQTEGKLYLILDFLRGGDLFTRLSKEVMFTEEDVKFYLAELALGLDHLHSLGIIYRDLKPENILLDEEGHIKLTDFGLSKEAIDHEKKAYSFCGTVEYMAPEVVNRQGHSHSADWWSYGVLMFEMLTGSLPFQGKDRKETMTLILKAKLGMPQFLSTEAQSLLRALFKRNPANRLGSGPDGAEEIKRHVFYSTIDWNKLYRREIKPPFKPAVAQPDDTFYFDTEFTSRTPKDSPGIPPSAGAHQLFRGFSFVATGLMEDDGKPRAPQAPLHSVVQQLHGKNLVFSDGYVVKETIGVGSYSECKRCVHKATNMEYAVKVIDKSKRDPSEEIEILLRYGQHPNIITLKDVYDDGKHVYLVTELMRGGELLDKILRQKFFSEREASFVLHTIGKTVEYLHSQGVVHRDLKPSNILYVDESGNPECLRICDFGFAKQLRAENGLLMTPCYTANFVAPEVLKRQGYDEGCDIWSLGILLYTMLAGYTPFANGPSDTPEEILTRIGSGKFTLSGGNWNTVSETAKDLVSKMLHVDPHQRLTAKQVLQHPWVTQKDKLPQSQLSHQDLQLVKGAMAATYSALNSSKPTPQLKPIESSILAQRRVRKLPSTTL
Method: as §1

JNK2 = JNK2 (Homo sapiens, UniProt P45984); settings: JNK2, 10 μM
Method: as §1

HIPK1 = HIPK1 (Homo sapiens, UniProt Q86Z02); settings: HIPK1, 10 μM
Method: as §1

TTK = TTK (Homo sapiens, UniProt P33981)
Method: as §1

PDK1 = PDK1 (Homo sapiens, UniProt O15530); settings: PDK1, 10 μM
Method: as §1

MST2 = MST2 (Homo sapiens, UniProt Q13188); settings: MST2, 10 μM
Method: as §1

MNK2 = MNK2 (Homo sapiens, UniProt Q9HBH9); settings: MNK2, 10 μM
Method: as §1

MKK1 = MKK1 (Homo sapiens, UniProt Q02750); settings: MKK1, 10 μM
Method: as §1

HIPK2 = HIPK2 (Homo sapiens, UniProt Q9H2X6); settings: HIPK2, 10 μM
Method: as §1

CLK2 = CLK2 (Homo sapiens, UniProt P49760); settings: CLK2, 10 μM
Method: as §1

CK2 = CK2 (Homo sapiens, UniProt P68400); settings: CK2, 10 μM
Method: as §1

PIM2 = PIM2 (Homo sapiens, UniProt Q9P1W9); settings: PIM2, 10 μM
Sequence of PIM2 (Q9P1W9 whole entry): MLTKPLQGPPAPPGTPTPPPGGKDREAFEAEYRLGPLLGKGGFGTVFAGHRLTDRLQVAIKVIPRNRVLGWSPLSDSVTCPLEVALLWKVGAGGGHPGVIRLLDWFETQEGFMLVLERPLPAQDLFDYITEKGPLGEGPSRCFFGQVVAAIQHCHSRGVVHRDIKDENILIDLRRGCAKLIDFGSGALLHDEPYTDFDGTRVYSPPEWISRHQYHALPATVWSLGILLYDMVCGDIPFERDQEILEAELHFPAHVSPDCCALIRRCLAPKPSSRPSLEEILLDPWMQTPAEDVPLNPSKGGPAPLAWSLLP
Method: as §1

PKCz = PKCz (Homo sapiens, UniProt Q05513)
Method: as §1

p38d MAPK = p38d MAPK (Homo sapiens, UniProt O15264)
Method: as §1

MAPKAP-K2 = MAPKAP-K2 (Homo sapiens, UniProt P49137); settings: MAPKAP-K2, 10 μM
Sequence of MAPKAP-K2 (P49137 whole entry): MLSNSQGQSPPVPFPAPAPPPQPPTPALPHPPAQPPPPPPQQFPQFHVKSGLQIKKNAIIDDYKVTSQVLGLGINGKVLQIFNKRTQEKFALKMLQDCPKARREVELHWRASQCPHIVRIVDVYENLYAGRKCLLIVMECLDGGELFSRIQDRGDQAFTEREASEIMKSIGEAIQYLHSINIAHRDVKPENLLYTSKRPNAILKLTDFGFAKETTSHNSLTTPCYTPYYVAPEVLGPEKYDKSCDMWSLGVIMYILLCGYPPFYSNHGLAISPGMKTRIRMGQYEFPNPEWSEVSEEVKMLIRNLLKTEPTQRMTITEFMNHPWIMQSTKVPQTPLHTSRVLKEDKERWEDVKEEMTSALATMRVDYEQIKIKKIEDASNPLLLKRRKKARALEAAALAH
Method: as §1

Question: How did the remaining activity at 10 µM (ERK2) turn out when `CN(C)c1cc[n+](CCCCCCCCCCCC[n+]2ccc(N(C)C)cc2)cc1` [ICL-CCIC-0019] was run?
Answer: Its remaining activity at 10 µM is 103%.

Question: And the remaining activity at 10 µM (SIK2)?
Answer: The remaining activity at 10 µM was 109%.

Question: What about the remaining activity at 10 µM (PKD1) of the same molecule?
Answer: Its remaining activity at 10 µM is 105%.

Question: And the remaining activity at 10 µM (TTBK1)?
Answer: Its remaining activity at 10 µM is 97%.

Question: What about the remaining activity at 10 µM (RIPK2) of the same molecule?
Answer: The remaining activity at 10 µM was 102%.

Question: What about the inhibition at 10 µM (MAPKAP-K3) of the same molecule?
Answer: Its inhibition at 10 µM is 33 ± 6%.

Question: And the remaining activity at 10 µM (MAPKAP-K3)?
Answer: The remaining activity at 10 µM was 67%.

Question: And the remaining activity at 10 µM (MSK1)?
Answer: Its remaining activity at 10 µM is 96%.

Question: What about the remaining activity at 10 µM (PRK2) of the same molecule?
Answer: Its remaining activity at 10 µM is 94%.

Question: And the remaining activity at 10 µM (TrkA)?
Answer: Its remaining activity at 10 µM is 84%.

Question: And the remaining activity at 10 µM (STK33)?
Answer: The remaining activity at 10 µM was 99%.

Question: What about the remaining activity at 10 µM (EPH-B3) of the same molecule?
Answer: The remaining activity at 10 µM was 107%.

Question: And the remaining activity at 10 µM (CK1δ)?
Answer: Its remaining activity at 10 µM is 100%.

Question: And the remaining activity at 10 µM (DAPK1)?
Answer: Its remaining activity at 10 µM is 96%.

Question: What about the remaining activity at 10 µM (MARK2) of the same molecule?
Answer: The remaining activity at 10 µM was 86%.

Question: What about the inhibition at 10 µM (HER4) of the same molecule?
Answer: Its inhibition at 10 µM is 21 ± 7%.

Question: What about the remaining activity at 10 µM (HER4) of the same molecule?
Answer: Its remaining activity at 10 µM is 79%.

Question: And the inhibition at 10 µM (ERK8)?
Answer: Its inhibition at 10 µM is 31 ± 4%.

Question: What about the remaining activity at 10 µM (ERK8) of the same molecule?
Answer: The remaining activity at 10 µM was 69%.

Question: And the remaining activity at 10 µM (IR)?
Answer: Its remaining activity at 10 µM is 103%.

Question: What about the remaining activity at 10 µM (Aurora A) of the same molecule?
Answer: The remaining activity at 10 µM was 98%.

Question: What about the remaining activity at 10 µM (MNK1) of the same molecule?
Answer: Its remaining activity at 10 µM is 101%.

Question: What about the remaining activity at 10 µM (PKCa) of the same molecule?
Answer: The remaining activity at 10 µM was 98%.

Question: And the inhibition at 10 µM (RSK1)?
Answer: The inhibition at 10 µM was 22 ± 6%.

Question: What about the remaining activity at 10 µM (RSK1) of the same molecule?
Answer: Its remaining activity at 10 µM is 78%.

Question: What about the remaining activity at 10 µM (JNK2) of the same molecule?
Answer: The remaining activity at 10 µM was 100%.

Question: And the remaining activity at 10 µM (HIPK1)?
Answer: Its remaining activity at 10 µM is 106%.

Question: And the remaining activity at 10 µM (TTK)?
Answer: The remaining activity at 10 µM was 101%.

Question: What about the remaining activity at 10 µM (PDK1) of the same molecule?
Answer: The remaining activity at 10 µM was 133%.

Question: And the remaining activity at 10 µM (MST2)?
Answer: The remaining activity at 10 µM was 89%.

Question: And the remaining activity at 10 µM (MNK2)?
Answer: Its remaining activity at 10 µM is 96%.

Question: And the remaining activity at 10 µM (MKK1)?
Answer: The remaining activity at 10 µM was 82%.

Question: And the remaining activity at 10 µM (HIPK2)?
Answer: Its remaining activity at 10 µM is 104%.

Question: What about the remaining activity at 10 µM (CLK2) of the same molecule?
Answer: Its remaining activity at 10 µM is 101%.

Question: And the remaining activity at 10 µM (CK2)?
Answer: The remaining activity at 10 µM was 86%.

Question: What about the remaining activity at 10 µM (PIM2) of the same molecule?
Answer: Its remaining activity at 10 µM is 103%.

Question: And the remaining activity at 10 µM (PKCz)?
Answer: The remaining activity at 10 µM was 106%.

Question: And the remaining activity at 10 µM (p38d MAPK)?
Answer: Its remaining activity at 10 µM is 100%.

Question: What about the remaining activity at 10 µM (MAPKAP-K2) of the same molecule?
Answer: Its remaining activity at 10 µM is 89%.
